Consider one compound from patent US7387796B2, “Stable compositions of S-adenosyl-l-methionine with dextran” (priority 2002, dated 2008).

The conditions of data set [1]: 10 ng/ml injected; sample left at room temperature in the light for 12 months, no special protection.
The conditions of data set [2]: oral, alcoholic liver cirrhosis, compared with placebo treated group; cited from earlier work.
The conditions of data set [3]: patients with Alzheimer's disease, preliminary study; cited from earlier work.
The conditions of data set [4]: oral administration, patients with and without liver disease; cited from earlier work.
For data set [5] the following is noted: oral administration, intrahepatic cholestasis; cited from earlier work.
The conditions of data set [6]: oral administration, short term trial; cited from earlier work.
The conditions of data set [7]: in vivo; cited from earlier work.

Regarding `C[S+](CC[C@H](N)C(=O)[O-])C[C@H]1O[C@@H](n2cnc3c(N)ncnc32)[C@H](O)[C@@H]1O` (some centres unmarked) [SAM-e, S-adenosyl-1-methionine], in data set [1], the “Area of HPLC peak” value came to 189251 and the conc. turned out to be 10 ng/mL. Also, in data set [2], the “overall mortality and/or progression to liver transplant” value is reported as 12%. The cognitive effect result in data set [3] is “cognitive improvement”. In addition, the liver glutathione levels result in data set [4] is given as “increases in liver glutathione levels”. Also, the “pruritus and biochemical markers of cholestasis” value in data set [5] is reported as “improvements in both the pruritus as well as the biochemical markers of cholestasis”. Besides, the “clinical effect in primary fibromyalgia” value in data set [6] was “significant improvement”. The “toxicity in clinical use” value in data set [7] is “absence of toxicity”.
